# Laboratory results taken from ChEMBL document CHEMBL5576104, “Design, synthesis, and anti-melanogenic efficacy of 2-mercaptobenzoxazoles with nanomolar tyrosinase activity inhibition” (Bioorg Med Chem, 2024).
# The source made the active and inactive calls. No cut-off for these calls is given here.
# What was measured:
# [1] = target: T1, Mushroom tyrosinase (Agaricus bisporus, UniProt O42713+Q00024+C7FF04+C7FF05); assay: Inhibition of mushroom tyrosinase using L-DOPA as substrate incubated for 30 mins by absorbance based microplate reader analysis; format: protein assay
# [2] = Antioxidant activity assessed as ABTS radical scavenging activity at 100 uM preincubated under dark condition for 2 mins and measured every 1 min for 10 mins by absorbance based microplate reader analysis relative to control; format: functional; conditions: time 12.0 min
# [3] = target: T1, Mushroom tyrosinase; assay: Inhibition of mushroom tyrosinase using L-tyrosine as substrate incubated for 30 mins by absorbance based microplate reader analysis; format: protein assay
# [4] = system: B16-F10; assay: Cytotoxicity against mouse B16-F10 cells assessed as reduction in cell viability at <=20 uM incubated for 72 hrs by EZ-Cytox assay; format: toxicity, cell-based; conditions: b16-f10, 72 h
# [5] = Cytotoxicity against human HaCaT cells assessed as cell viability at 20 uM incubated for 24 hrs by EZ-Cytox assay relative to control; format: toxicity, cell-based; conditions: read-out: Activity
# [6] = Cytotoxicity against human HaCaT cells assessed as cell viability at 10 uM incubated for 24 hrs by EZ-Cytox assay relative to control; format: toxicity, cell-based; conditions: read-out: Activity
# [7] = Cytotoxicity against human HaCaT cells assessed as cell viability at 5 uM incubated for 24 hrs by EZ-Cytox assay relative to control; format: toxicity, cell-based; conditions: read-out: Activity
# [8] = target: T1, Mushroom tyrosinase; assay: Binding affinity to mushroom tyrosinase using L-DOPA as substrate assessed as inhibition constant by Dixon plot analysis; format: protein assay
# [9] = system: HaCaT; assay: Cytotoxicity against human HaCaT cells assessed as reduction in cell viability at 5 to 20 uM incubated for 24 hrs by EZ-Cytox assay; format: toxicity, cell-based; conditions: dose 5-20 µM
# [10] = target: T2, Mushroom tyrosinase (Agaricus bisporus) (UniProt O42713+Q00024+C7FF04+C7FF05); assay: Inhibition of mushroom tyrosinase using L-DOPA as substrate at 500 nM incubated for 30 mins by absorbance based microplate reader analysis relative to control; format: protein assay
# [11] = target: T2, Mushroom tyrosinase (Agaricus bisporus); assay: Inhibition of mushroom tyrosinase using L-DOPA as substrate at 500 nM incubated for 30 mins in presence of CuSO4 by absorbance based microplate reader analysis relative to control; format: protein assay
# [12] = target: T2, Mushroom tyrosinase (Agaricus bisporus); assay: Mixed-type inhibition of mushroom tyrosinase using L-DOPA as substrate assessed as decrease in Vmax with increase in Km upto 1.8 uM using varying concentrations of substrate by Lineweaver-Burk plot analysis; format: protein assay
# [13] = target: T2, Mushroom tyrosinase (Agaricus bisporus); assay: Potency index, ratio of phenylthiourea IC50 to test compound IC50 for inhibition of mushroom tyrosinase using L-tyrosine as substrate incubated for 30 mins by absorbance based microplate reader analysis; format: protein assay
# [14] = target: T2, Mushroom tyrosinase (Agaricus bisporus); assay: Potency index, ratio of kojic acid IC50 to test compound IC50 for inhibition of mushroom tyrosinase using L-DOPA as substrate incubated for 30 mins by absorbance based microplate reader analysis; format: protein assay
# [15] = target: T2, Mushroom tyrosinase (Agaricus bisporus); assay: Competitive inhibition of mushroom tyrosinase using L-DOPA as substrate assessed as increase in Km with constant Vmax upto 0.2 uM using varying concentrations of substrate by Lineweaver-Burk plot analysis; format: protein assay
# [16] = system: B16-F10; assay: Antimelanogenic activity against IBMX/[…] stimulated mouse B16-F10 cells assessed as reduction in intracellular melanin content preincubated for 1 hr followed by IBMX/[…] addition and measured after 72 hrs by microplate reader analysis; format: functional, cell-based; conditions: dose 5-20 µM, time 73.0 hrs
# [17] = target: T3, Tyrosinase (Mus musculus) (UniProt P11344); assay: Inhibition of tyrosinase activity in IBMX/[…] stimulated mouse B16-F10 cells preincubated for 1 hr followed by IBMX/[…] addition and measured after 72 hrs by microplate reader assay; format: cell-based; conditions: dose 5-20 µM, time 73.0 hrs
# T3 sequence (whole entry): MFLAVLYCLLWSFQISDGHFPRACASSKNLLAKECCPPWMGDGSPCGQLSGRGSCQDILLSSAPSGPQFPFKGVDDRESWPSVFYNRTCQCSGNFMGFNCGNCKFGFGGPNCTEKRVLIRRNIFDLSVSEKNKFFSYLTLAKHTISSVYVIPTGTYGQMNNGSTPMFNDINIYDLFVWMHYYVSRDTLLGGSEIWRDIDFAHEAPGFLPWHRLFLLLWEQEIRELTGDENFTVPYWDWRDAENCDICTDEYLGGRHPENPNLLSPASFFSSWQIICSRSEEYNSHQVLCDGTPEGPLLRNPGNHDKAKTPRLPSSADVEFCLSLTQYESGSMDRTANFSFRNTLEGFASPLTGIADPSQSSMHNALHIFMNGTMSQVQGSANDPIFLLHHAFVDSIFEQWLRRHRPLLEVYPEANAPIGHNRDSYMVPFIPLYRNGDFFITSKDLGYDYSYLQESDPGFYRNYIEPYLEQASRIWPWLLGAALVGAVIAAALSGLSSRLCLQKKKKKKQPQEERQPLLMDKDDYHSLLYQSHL
# [18] = target: T2, Mushroom tyrosinase (Agaricus bisporus); assay: Mixed-type inhibition of mushroom tyrosinase using L-DOPA as substrate assessed as decrease in Vmax with increase in Km upto 0.2 uM using varying concentrations of substrate by Lineweaver-Burk plot analysis; format: protein assay
# [19] = target: T2, Mushroom tyrosinase (Agaricus bisporus); assay: Potency index, ratio of phenylthiourea IC50 to test compound IC50 for inhibition of mushroom tyrosinase; format: protein assay
SMILES,IC50 [1],IC50 [3],Ki [8],inhibition [10],inhibition [11],inhibition [12],Ratio IC50 [13],Ratio IC50 [14],inhibition [15],inhibition [17],inhibition [18],Ratio IC50 [19],Activity [2],Activity [4],"viability at 24 h, 20 µM [5]","viability at 24 h, 10 µM [6]","viability at 24 h, 5 µM [7]",Activity [9],Activity [16]
O=[N+]([O-])c1cccc2oc(S)nc12,23.84 µM,14.8 µM,,,,,,,,,,,34%,Non-Toxic,94%,,,,
O=[N+]([O-])c1ccc2oc(=S)[nH]c2c1,5.81 µM,2.41 µM,,,,,,,,,,,49%,Non-Toxic,84%,91%,91%,,
Cc1c(C)c2c(c(C)c1O)CCC(C)(C(=O)O)O2 (stereo not given),,,,,,,,,,,,,49%,,,,,,
Cc1ccc2[nH]c(=S)oc2c1,0.08 µM,0.13 µM,0.098 µM,> 92%,26%,,,,,Dose-Dependent Effect,Active,2,49%,Non-Toxic,,,,Non-Toxic,Dose-Dependent Effect

# Now from value to compound, other results behind:
IC50 [1],IC50 [3],Ki [8],inhibition [10],inhibition [11],inhibition [12],Ratio IC50 [13],Ratio IC50 [14],inhibition [15],inhibition [17],inhibition [18],Ratio IC50 [19],SMILES,Activity [2],Activity [4],"viability at 24 h, 20 µM [5]","viability at 24 h, 10 µM [6]","viability at 24 h, 5 µM [7]",Activity [9],Activity [16]
0.09 µM,0.1 µM,0.142 µM,> 92%,26%,Active,3,,,,,,Cc1ccc2oc(=S)[nH]c2c1,49%,Non-Toxic,,,,Non-Toxic,
6.25 µM,2.02 µM,,,,,,,,,,,S=c1[nH]c2ccc(Cl)cc2o1,49%,Non-Toxic,,,,Non-Toxic,
0.08 µM,0.24 µM,0.058 µM,> 92%,26%,,,440,Active,,,,Sc1nc2ccccc2o1,49%,Non-Toxic,,,,Non-Toxic,
2.15 µM,2.85 µM,,,,,,16,,Dose-Dependent Effect,,,Cc1cccc2oc(S)nc12,49%,Non-Toxic,,,,Non-Toxic,Dose-Dependent Effect
13.76 µM,12.25 µM,,,,,,,,Dose-Dependent Effect,,,O=[N+]([O-])c1ccc2nc(S)oc2c1,49%,Non-Toxic,,,,Non-Toxic,Dose-Dependent Effect
